Where two headings read alike, the source gives them in different places.

Assay [1] deals with amines and tyrosine hydroxylase. The following applies: cited from earlier work.
For assay [2], the system named is bacterial BMR transporter. Conditions: cited from earlier work.
Assay [3] has as its target T1, chromaffin granule amine transport protein (Rattus norvegicus, UniProt Q01818).
T1 sequence (Q01818 1-521): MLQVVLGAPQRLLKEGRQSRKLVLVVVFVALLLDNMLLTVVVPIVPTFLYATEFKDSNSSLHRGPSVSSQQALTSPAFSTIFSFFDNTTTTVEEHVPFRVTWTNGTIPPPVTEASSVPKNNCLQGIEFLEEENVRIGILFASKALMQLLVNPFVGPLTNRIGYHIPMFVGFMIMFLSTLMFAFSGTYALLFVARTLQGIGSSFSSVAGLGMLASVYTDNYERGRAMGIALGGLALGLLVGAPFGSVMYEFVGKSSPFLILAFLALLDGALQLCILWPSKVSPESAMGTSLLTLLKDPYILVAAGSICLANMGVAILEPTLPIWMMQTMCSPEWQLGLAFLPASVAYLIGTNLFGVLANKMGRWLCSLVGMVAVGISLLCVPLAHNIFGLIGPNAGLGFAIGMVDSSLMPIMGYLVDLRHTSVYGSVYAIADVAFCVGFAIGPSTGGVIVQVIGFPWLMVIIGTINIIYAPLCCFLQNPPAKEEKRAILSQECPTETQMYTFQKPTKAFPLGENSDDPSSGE
As to the kind of experiment: Quantitative [3H]dopamine transport assay with mpp^res CHO cell homogenate. The class given is biochemical. The following applies: dose-response, 2-minute incubation (FIG. 15C). The protocol:
The quantity of label bound is measured after filtration of the assay mixture. Preferably, the label is a radioactive label. […] This can be done by standard graphic kinetic techniques such as the Lineweaver-Burke plot.
Incubation was performed at 29° C. for the time period indicated (from 2 minutes to 30 minutes). The assay was terminated by dilution in cold assay buffer followed by filtration through 0.2 μm Supor™ 200 membranes (Gelman, Ann Arbor, Mich.) and the bound radioactivity was measured. The cells used for the quantitative assay are selected in MPP^+ or screened with antibody to ensure that they express the transporter at high levels, as it is difficult to measure activity in this assay at low levels of transporter expression.
The quantitative transport test was performed as described above on wild-type CHO cells and mpp^res CHO cells.

The subject of assay [4] is MPP^+ -resistant CHO cells. As to the kind of experiment: MTT cytotoxicity assay in MPP+-resistant transfected CHO cells. The following applies: 1 μM reserpine, MPP+-resistant CHO cells. The class given is cell-based, Chinese hamster. The procedure: Differential susceptibility to the respiratory complex I inhibitors MPP^+ and rotenone was shown by measuring toxicity by measuring general cell dehydrogenase activity with reduction of a tetrazolium dye (MTT) in a spectrophotometric plate assay as described by Hansen et al., J. Immunol. Methods 119:203-210 (1989). Briefly, a stock solution of MTT (3,(4,5-dimethylthiazol-2-yl)2,5-diphenyltetrazolium bromide) was dissolved at a concentration of 5 mg/ml in sterile phosphate buffered saline at room temperature. To each well was added 25 μl of the stock solution. After two hours of incubation at 37° C., 100 μl of extraction buffer (20% w/v of SDS in a solution of 50% each dimethylformamide and demineralized water with the pH adjusted to 4.7 with acetic acid and HCl). After an overnight incubation at 37° C., the optical densities at 570 nm were measured using a multiscanner, employing the extraction buffer as the blank. This assay was carried out in triplicate on 96-well plates (NUNC, Denmark). MPP^+ and rotenone at the concentrations indicated in FIG. 6a and 6b, respectively, was added to wild-type and MPP^+ -resistant CHO cells at approximately 50% confluence, and toxicity was assayed after 2-3 days by measuring general cell dehydrogenase activity with the reduction of the tetrazolium dye MTT (3,(4,5-dimethylthiazol-2-yl)2,5-diphenyl-tetrazolium bromide). After addition of the dye at a final concentration of 1 mg/ml, the cells were incubated for two hours at 37° C. and the formazan product was solubilized in 10% sodium dodecyl sulfate (SDS). The plates were maintained at 37° C. for an additional twenty hours and the optical density was determined in an ELISA plate reader at a test wavelength of 570 nm, a reference wavelength of 630 nm and a calibration setting of 1.99. All determinations were performed in triplicate and expressed as the mean, with the error bars representing standard deviation (FIG. 6a and 6b).
To determine whether an alteration in the process of respiration was responsible for the resistance to MPP^+, the effects of other known respiratory inhibitors were examined. […] Thus, if the resistance were due to a change in the site of action, the transfected cells should also show resistance to rotenone. […] However, rotenone is considered to have its selected effect on respiration at relatively low doses, and an additional, less specific effect at higher doses.
Therefore, the toxicity of MPP^+ to transfected cells in the presence of 1 μM reserpine was examined.

For assay [5], the system named is vesicular amine transport protein. Conditions: cited from earlier work.

In the case of `COC(=O)[C@H]1[C@H]2C[C@@H]3c4[nH]c5cc(OC)ccc5c4CCN3C[C@H]2C[C@@H](OC(=O)c2cc(OC)c(OC)c(OC)c2)[C@@H]1OC` [reserpine], the “potentiation of amine depletion and reduction in tyrosine hydroxylase by MPP+” value in assay [1] was “can potentiate the depletion of amines and reduction in tyrosine hydroxylase by MPP^+”. Besides, the “inhibition of bacterial BMR transporter” value in assay [2] is on record as “inhibits”. For the same molecule, the “inhibition of dopamine transport” value in assay [3] is “inhibition by both reserpine and tetrabenazine”. In assay [4], the “reversal of MPP+ resistance” value is on record as “Dramatic reversion to wild-type CHO sensitivity”. Also, the “inhibition of vesicular amine transport” value is “inhibits” in assay [5] and “inhibit this transport activity” in assay [5] (listed as Reserpine).

The values are drawn from patent publication US5688936A, “Vesicle membrane transport proteins” (priority 1993, dated 1997).
